The source made the active and inactive calls. No rule for the calls is given here.

The series has as its system rodent lifetime carcinogenesis bioassay, tumor incidence TD50. The experiment in a line: chronic cancer bioassays in animals – CPDB, compiled studies (AID 1745844).

With `CN(CCCC(O)c1cccnc1)N=O` (stereo not given), the TD50 runs as follows: (rat, strain Fischer 344, males, in drinking water, site: adrenal medulla, lesion: one or several types, types not named, dosed 112 weeks, study length 112 weeks) 1.39 mg/kg/day; (rat, strain Fischer 344, males, in drinking water, site: liver, lesion: hepatoma, dosed 112 weeks, study length 112 weeks) 5.86 mg/kg/day; (rat, strain Fischer 344, males, in drinking water, site: liver, lesion: several types, types named in the paper, dosed 112 weeks, study length 112 weeks) 7.25 mg/kg/day; (rat, strain Fischer 344, males, in drinking water, site: lung, lesion: adenocarcinoma, dosed 112 weeks, study length 112 weeks) 0.409 mg/kg/day; (rat, strain Fischer 344, males, in drinking water, site: lung, lesion: adenoma, dosed 112 weeks, study length 112 weeks) 1.38 mg/kg/day; (rat, strain Fischer 344, males, in drinking water, site: lung, lesion: adenosquamous carcinoma, dosed 112 weeks, study length 112 weeks) 0.577 mg/kg/day. Also, the TD50 was 0.103 mg/kg/day (rat, strain Fischer 344, males, in drinking water, site: lung, lesion: several types, types named in the paper, dosed 112 weeks, study length 112 weeks); 2.14 mg/kg/day (rat, strain Fischer 344, males, in drinking water, site: pancreas, exocrine, lesion: acinar-cell adenoma, dosed 112 weeks, study length 112 weeks); 1.09 mg/kg/day (rat, strain Fischer 344, males, in drinking water, site: pancreas, exocrine, lesion: adenocarcinoma, acinar or ductal, dosed 112 weeks, study length 112 weeks); 0.668 mg/kg/day (rat, strain Fischer 344, males, in drinking water, site: pancreas, exocrine, lesion: several types, types named in the paper, dosed 112 weeks, study length 112 weeks).
On to `O=S(=O)(O)c1c(N=Nc2c(O)ccc3ccccc23)ccc2ccccc12`, for which the carcinogen call is “negative (inactive)” (rat, strain Osborne-Mendel, females, in feed, site: liver, lesion: adenoma, dosed 105 weeks, study length 105 weeks) and “negative (inactive)” (rat, strain Osborne-Mendel, males, in feed, site: liver, lesion: hepatocellular adenoma, dosed 105 weeks, study length 105 weeks). For the setting “rat, strain Osborne-Mendel, females, in feed, site: pituitary gland, lesion: adenoma, dosed 105 weeks, study length 105 weeks”, the TD50 was 3560 mg/kg/day (inactive).
Consider `CC[C@H](C)C(=O)O[C@H]1C[C@@H](C)C=C2C=C[C@H](C)[C@H](CC[C@@H]3C[C@@H](O)CC(=O)O3)[C@H]21`, for which the TD50 reads like this: (mouse, strain Charles River CD1, females, by gavage, site: forestomach, lesion: squamous-cell carcinoma, dosed 92 weeks, study length 92 weeks) 38400 mg/kg/day; (mouse, strain Charles River CD1, females, by gavage, site: forestomach, lesion: squamous-cell papilloma, dosed 92 weeks, study length 92 weeks) 1020 mg/kg/day; (mouse, strain Charles River CD1, females, by gavage, site: liver, lesion: hepatocellular carcinoma, dosed 92 weeks, study length 92 weeks) 2240 mg/kg/day; (mouse, strain Charles River CD1, females, by gavage, site: liver, lesion: several types, types named in the paper, dosed 92 weeks, study length 92 weeks) 623 mg/kg/day; (mouse, strain Charles River CD1, females, by gavage, site: lung, lesion: adenocarcinoma, dosed 92 weeks, study length 92 weeks) 57400 mg/kg/day; (mouse, strain Charles River CD1, females, by gavage, site: lung, lesion: alveolar-cell adenoma, dosed 92 weeks, study length 92 weeks) 1220 mg/kg/day. The TD50 by setting is: (mouse, strain Charles River CD1, males, by gavage, site: forestomach, lesion: squamous-cell papilloma, dosed 92 weeks, study length 92 weeks) 8550 mg/kg/day; (mouse, strain Charles River CD1, males, by gavage, site: liver, lesion: hepatocellular carcinoma, dosed 92 weeks, study length 92 weeks) 708 mg/kg/day; (mouse, strain Charles River CD1, males, by gavage, site: liver, lesion: several types, types named in the paper, dosed 92 weeks, study length 92 weeks) 439 mg/kg/day; (rat, strain Charles River CD (Sprague-Dawley), females, by gavage, site: liver, lesion: hepatocellular adenoma, dosed 105 weeks, study length 105 weeks) 19900 mg/kg/day (inactive); (rat, strain Charles River CD (Sprague-Dawley), males, by gavage, site: liver, lesion: hepatocellular carcinoma, dosed 105 weeks, study length 105 weeks) 2330 mg/kg/day (inactive). Under “rat, strain Charles River CD (Sprague-Dawley), males, by gavage, site: liver, lesion: hepatocellular adenoma, dosed 105 weeks, study length 105 weeks”, the carcinogen call was “negative (inactive)”.
`C[C@@H]1CCCCN1N=O`: the TD50 reads like this: (rat, strain Sprague-Dawley, both sexes, in drinking water, site: any site (literature study), lesion: malignant tumor, dosed 104 weeks, study length 104 weeks) 20.4 mg/kg/day; (rat, strain Sprague-Dawley, both sexes, in drinking water, site: liver, lesion: hepatocellular adenoma, dosed 104 weeks, study length 104 weeks) 108 mg/kg/day; (rat, strain Sprague-Dawley, both sexes, in drinking water, site: n. olfactorius, lesion: ependymoblastoma, dosed 104 weeks, study length 104 weeks) 22.1 mg/kg/day.
For `CCC(C)[N+](=O)[O-]` (stereo not given), the TD50 (rat, strain Fischer 344, males, by gavage, site: liver, lesion: hepatocellular carcinoma, dosed 50 weeks, study length 83 weeks) is 2.86 mg/kg/day.
For the compound `CN=[N+](C)[O-]`, the TD50 (rat, strain Fischer 344, males, by gavage, site: Zymbal's gland, lesion: carcinoma, dosed 30 weeks, study length 65 weeks) is 0.204 mg/kg/day; the TD50 (rat, strain Fischer 344, males, by gavage, site: colon, lesion: malignant tumor, dosed 30 weeks, study length 65 weeks) is 0.171 mg/kg/day; the TD50 (rat, strain Fischer 344, males, by gavage, site: colon, lesion: one or several types, types not named, dosed 30 weeks, study length 65 weeks) was 0.102 mg/kg/day; the TD50 (rat, strain Fischer 344, males, by gavage, site: kidney, lesion: mesenchymal neoplasm, dosed 30 weeks, study length 65 weeks) is 0.3 mg/kg/day; the TD50 (rat, strain Fischer 344, males, in drinking water, site: colon, lesion: several types, types named in the paper, dosed 30 weeks, study length 100 weeks) was 0.585 mg/kg/day; the TD50 (rat, strain Fischer 344, males, in drinking water, site: kidney, lesion: several types, types named in the paper, dosed 30 weeks, study length 100 weeks) was 0.388 mg/kg/day. The TD50 reads like this: (rat, strain Fischer 344, males, in drinking water, site: liver, lesion: hemangiosarcoma, dosed 30 weeks, study length 100 weeks) 0.982 mg/kg/day; (rat, strain Fischer 344, males, in drinking water, site: liver, lesion: hepatocellular carcinoma, dosed 30 weeks, study length 100 weeks) 0.0677 mg/kg/day; (rat, strain Fischer 344, males, in drinking water, site: liver, lesion: neoplastic nodule, dosed 30 weeks, study length 100 weeks) 28.6 mg/kg/day; (rat, strain Fischer 344, males, in drinking water, site: liver, lesion: several types, types named in the paper, dosed 30 weeks, study length 100 weeks) 0.0302 mg/kg/day. Also, the carcinogen call (rat, strain Fischer 344, males, by gavage, site: liver, lesion: one or several types, types not named, dosed 30 weeks, study length 65 weeks) is “negative (inactive)”.
For the compound `O=NN1CCN(N=O)CC1`, the TD50 (mouse, strain C17, females, by gavage, site: forestomach, lesion: squamous-cell carcinoma, dosed 40 weeks, study length 104 weeks) is 4.66 mg/kg/day; the TD50 (mouse, strain C17, females, by gavage, site: uterus, lesion: reticulum-cell neoplasm, type A, dosed 40 weeks, study length 104 weeks) is 4.13 mg/kg/day; the TD50 (mouse, strain C17, males, by gavage, site: forestomach, lesion: squamous-cell carcinoma, dosed 40 weeks, study length 104 weeks) is 2.01 mg/kg/day; the TD50 (mouse, strain Swiss, males, in drinking water, site: any site (literature study), lesion: several types, types named in the paper, dosed 52 weeks, study length 100 weeks) is 8.24 mg/kg/day; the TD50 (mouse, strain Swiss, males, in drinking water, site: liver, lesion: hepatocellular carcinoma, dosed 52 weeks, study length 100 weeks) was 51.9 mg/kg/day; the TD50 (mouse, strain Swiss, males, in drinking water, site: lung, lesion: adenoma, dosed 52 weeks, study length 100 weeks) amounted to 8.7 mg/kg/day. For the same compound, the carcinogen call (mouse, strain Swiss, females, in drinking water, site: any site (literature study), lesion: several types, types named in the paper, dosed 52 weeks, study length 100 weeks) is “positive”.
On to `CC(=O)CN(N=O)C(N)=O`, for which the TD50 runs as follows: (hamster, strain Syrian Golden, females, by gavage, site: spleen, lesion: all vascular tumors, dosed 40 weeks, study length 55 weeks) 0.121 mg/kg/day; (hamster, strain Syrian Golden, males, by gavage, site: spleen, lesion: hemangiosarcoma, dosed 40 weeks, study length 75 weeks) 0.14 mg/kg/day; (rat, strain Fischer 344, females, by gavage, site: kidney, lesion: mesenchymal neoplasm, dosed 30 weeks, study length 104 weeks) 0.32 mg/kg/day; (rat, strain Fischer 344, females, by gavage, site: liver, lesion: one or several types, types not named, dosed 30 weeks, study length 104 weeks) 4.04 mg/kg/day; (rat, strain Fischer 344, males, by gavage, site: kidney, lesion: mesenchymal neoplasm, dosed 30 weeks, study length 104 weeks) 0.456 mg/kg/day.
Turning to `O=NN(CCCC(F)(F)F)CCCC(F)(F)F`, the TD50 runs as follows: (rat, strain Sprague-Dawley, females, by gavage, site: any site (literature study), lesion: malignant tumor, dosed 32 weeks, study length 101 weeks) 0.291 mg/kg/day; (rat, strain Sprague-Dawley, females, by gavage, site: liver, lesion: hepatocellular carcinoma, dosed 32 weeks, study length 101 weeks) 0.707 mg/kg/day; (rat, strain Sprague-Dawley, females, by gavage, site: lung, lesion: several types, types named in the paper, dosed 32 weeks, study length 101 weeks) 1.12 mg/kg/day; (rat, strain Sprague-Dawley, males, by gavage, site: any site (literature study), lesion: malignant tumor, dosed 32 weeks, study length 101 weeks) 0.363 mg/kg/day; (rat, strain Sprague-Dawley, males, by gavage, site: liver, lesion: hepatocellular carcinoma, dosed 32 weeks, study length 101 weeks) 0.793 mg/kg/day; (rat, strain Sprague-Dawley, males, by gavage, site: lung, lesion: several types, types named in the paper, dosed 32 weeks, study length 101 weeks) 0.793 mg/kg/day.
For `Cc1cnc(NC(=O)C2=C(O)c3ccccc3S(=O)(=O)N2C)s1`, the carcinogen call is “negative (inactive)” (rat, strain Wistar, females, by gavage, site: stomach, lesion: one or several types, types not named, dosed 52 weeks, study length 52 weeks) and “negative (inactive)” (rat, strain Wistar, males, by gavage, site: stomach, lesion: one or several types, types not named, dosed 52 weeks, study length 52 weeks).
